The results in this text go back to US10538554B2, “Peptides and uses therefor as antiviral agents” (priority 2015, dated 2020).

Like-named read-outs stand apart in the source and are kept apart here. Bridge positions count the residues as written; N and C are the ends. Square brackets hold non-standard residues; d marks the D form. Peptide text beside a SMILES is read from it.

For one assay, the system named is H3N8 A/Miami/2/63. Particulars: A/Miami/2/63, 48 h.
Another assay has as its system H3N2 A/HK/8/1968. Particulars: A/HK/8/1968, 48 h.
The test system of assay [1] is H1N1 A1/Malaysia/302/1954. Particulars: A1/Malaysia/302/1954, 48 h.
Another assay deals with H9N2 A/Iran/16/2000. Particulars: 48 h.

In the case of `CC[C@@H](C)[C@H]1NC(=O)[C@@H](Cc2ccccc2)NC(=O)[C@@H](CCCNC(=N)N)NC(=O)[C@@H](CO)NC(=O)[C@@H](CCCCN)NC(=O)[C@@H]([C@H](C)O)NC(=O)[C@H](N)CSSC[C@H](C(=O)O)NC(=O)[C@@H](CC(N)=O)NC1=O` [PSP 8, H-ctksrfinc-OH] (H-[dC][dT][dK][dS][dR][dF][dI][dN][dC]-OH; disulfide 1-9), the “% inhibition H3N8” value with H3N8 A/Miami/2/63 (500 μM) amounted to 83.5%. Also, the “% inhibition H3N2” value in the assay on H3N2 A/HK/8/1968 (500 μM) was 90.9%. Moreover, the “% inhibition H1N1” value in assay [1] (500 μM) was found to be 79.4%. Moreover, the “% inhibition H9N2” value in the assay on H9N2 A/Iran/16/2000 (500 μM) was found to be 90.9%.
With `CC[C@@H](C)[C@H]1NC(=O)[C@@H](Cc2ccccc2)NC(=O)[C@@H](CCCNC(=N)N)NC(=O)[C@@H](C)NC(=O)[C@@H](Cc2c[nH]c3ccccc23)NC(=O)[C@@H]([C@H](C)O)NC(=O)[C@H](NC(=O)[C@H](CCCCN)NC(=O)[C@H](CCCCN)NC(=O)[C@H](CCCNC(=N)N)NC(=O)[C@@H](N)CCCNC(=N)N)CSSC[C@H](C(=O)O)NC(=O)[C@@H](CC(N)=O)NC1=O` [PSP III B1, H-RRKKctwarfinc-OH] (H-RRKK[dC][dT][dW][dA][dR][dF][dI][dN][dC]-OH; disulfide 5-13), the “% inhibition H3N8” value in the assay on H3N8 A/Miami/2/63 (50 μM) worked out at 96%. Moreover, in the assay on H3N2 A/HK/8/1968 (50 μM), the “% inhibition H3N2” value is 92%. In addition, the “% inhibition H1N1” value in assay [1] (50 μM) amounted to 85%. Further, the “% inhibition H9N2” value in the assay with H9N2 A/Iran/16/2000 (50 μM) came out at 95%.
With `CC[C@@H](C)[C@H]1NC(=O)[C@@H](Cc2ccccc2)NC(=O)[C@@H](CCCNC(=N)N)NC(=O)[C@@H](CO)NC(=O)[C@@H](Cc2c[nH]c3ccccc23)NC(=O)[C@@H]([C@H](C)O)NC(=O)[C@H](NC(=O)[C@H](CCCCN)NC(=O)[C@H](CCCCN)NC(=O)[C@H](CCCNC(=N)N)NC(=O)[C@@H](N)CCCNC(=N)N)CSSC[C@H](C(=O)O)NC(=O)[C@@H](CC(N)=O)NC1=O` [PSP III B16, H-RRKKctwsrfinc-OH] (H-RRKK[dC][dT][dW][dS][dR][dF][dI][dN][dC]-OH; disulfide 5-13), the “% inhibition H3N8” value is on record as 96% with H3N8 A/Miami/2/63 (50 μM) and 100% with H3N8 A/Miami/2/63 (500 μM). In the assay on H3N2 A/HK/8/1968 (50 μM), the “% inhibition H3N2” value is 96%. Besides, in assay [1] (50 μM), the “% inhibition H1N1” value is recorded as 88%. Also, in the assay with H9N2 A/Iran/16/2000 (50 μM), the “% inhibition H9N2” value was 88%.
For `CC[C@@H](C)[C@H]1NC(=O)[C@@H](Cc2ccccc2)NC(=O)[C@@H](CCCNC(=N)N)NC(=O)[C@@H](CC(C)C)NC(=O)[C@@H](Cc2c[nH]c3ccccc23)NC(=O)[C@@H]([C@H](C)O)NC(=O)[C@H](NC(=O)[C@H](CCCCN)NC(=O)[C@H](CCCCN)NC(=O)[C@H](CCCNC(=N)N)NC(=O)[C@@H](N)CCCNC(=N)N)CSSC[C@H](C(=O)O)NC(=O)[C@@H](CC(N)=O)NC1=O` [PSP III B10, H-RRKKctwlrfinc-OH] (H-RRKK[dC][dT][dW][dL][dR][dF][dI][dN][dC]-OH; disulfide 5-13), the “% inhibition H3N8” value in the assay with H3N8 A/Miami/2/63 (50 μM) came to 96%. In addition, in the assay with H3N2 A/HK/8/1968 (50 μM), the “% inhibition H3N2” value is on record as 100%. In assay [1] (50 μM), the “% inhibition H1N1” value was found to be 92%. The “% inhibition H9N2” value with H9N2 A/Iran/16/2000 (50 μM) is 90%.
For `CC[C@@H](C)[C@H]1NC(=O)[C@@H](Cc2ccccc2)NC(=O)[C@@H](CCCNC(=N)N)NC(=O)[C@@H](CCC(=O)O)NC(=O)[C@@H](Cc2c[nH]c3ccccc23)NC(=O)[C@@H]([C@H](C)O)NC(=O)[C@H](NC(=O)[C@H](CCCCN)NC(=O)[C@H](CCCCN)NC(=O)[C@H](CCCNC(=N)N)NC(=O)[C@@H](N)CCCNC(=N)N)CSSC[C@H](C(=O)O)NC(=O)[C@@H](CC(N)=O)NC1=O` [PSP III B4, H-RRKKctwerfinc-OH] (H-RRKK[dC][dT][dW][dE][dR][dF][dI][dN][dC]-OH; disulfide 5-13) the same measures were 91%, 100%, 81% and 86%.
